In paper PMC3175016 (Journal of applied toxicology : JAT, 2011):
Marks after values point to notes of the source that are not given here.

How the values were obtained:
Type in all cases: in vivo
[1] = tested on: male Fischer 344 rats; experiment: Six-hour urine protein content after a single i.p. dose; details: i.p. in corn oil, mean ± SE, N = 3–4
[2] = tested on: male Fischer 344 rats; experiment: Kidney weight 24 h after a single i.p. dose; details: i.p. in corn oil, mean ± SE, N = 3–4
[3] = tested on: male Fischer 344 rats; experiment: Liver histology; details: 24 h
[4] = tested on: male Fischer 344 rats; experiment: Liver weight 24 h after a single i.p. dose; details: i.p. in corn oil, mean ± SE, N = 3–4
[5] = tested on: male Fischer 344 rats; experiment: Urine volume after a single i.p. dose; details: for Twenty-four-hour urine volume: i.p. in corn oil, mean ± SE, N = 3–4
[6] = tested on: male Fischer 344 rats; experiment: Blood urea nitrogen; details: for Blood urea nitrogen: i.p. in corn oil, 24 h, mean ± SE, N = 3–4
[7] = tested on: male Fischer 344 rats; experiment: Serum alanine aminotransferase; details: 24 h; for serum alanine aminotransferase (ALT) activity: corn oil controls 36.0 ± 11.3
[8] = tested on: male Fischer 344 rats; experiment: Kidney histology; details: all doses evaluated, i.p., 24 h, vs corn oil
[9] = dose 0.2 (head mg/kg; text mmol/kg)
[10] = dose 0.4 (head mg/kg; text mmol/kg)
[11] = dose 0.6 (head mg/kg; text mmol/kg)
[12] = dose 1.0 (head mg/kg; text mmol/kg)
[13] = all doses (0.2–1.0 mmol/kg) i.p.
[14] = all four doses (0.2, 0.4, 0.6, 1.0 mmol/kg) i.p., vs corn oil

SMILES: O=C1SCCN1c1cc(Cl)cc(Cl)c1 [2-DCTD, 3-(3,5-dichlorophenyl)-2-thiazolidinone]
- Six-hour urine protein content [1, 9]: 1.6 ± 0.4^d mg
- Six-hour urine protein content [1, 10]: 1.8 ± 0.1^d mg
- Six-hour urine protein content [1, 11]: 2.2 ± 0.1^d mg
- Six-hour urine protein content [1, 12]: 2.0 ± 0.1^d mg
- Kidney weight [2, 9]: 0.39 ± 0.01^e g/ 100% BW
- Kidney weight [2, 10]: 0.38 ± 0.01^e g/ 100% BW
- Kidney weight [2, 11]: 0.40 ± 0.01^e g/ 100% BW
- Kidney weight [2, 12]: 0.37 ± 0.01^e g/ 100% BW
- Liver morphology [3, 13]: generally normal, although some nuclear condensation was evident
- Liver weight [4, 9]: 3.96 ± 0.10^d g/100% BW
- Liver weight [4, 10]: 3.71 ± 0.11^d g/100% BW
- Liver weight [4, 11]: 3.74 ± 0.11^d g/100% BW
- Liver weight [4, 12]: 3.85 ± 0.15^d g/100% BW
- Twenty-four-hour urine volume [5, 9]: 6.0 ± 0.8^d ml
- Twenty-four-hour urine volume [5, 10]: 4.3 ± 0.3^d ml
- Twenty-four-hour urine volume [5, 11]: 5.0 ± 0.7^d ml
- Twenty-four-hour urine volume [5, 12]: 4.4 ± 1.3^d ml
- Blood urea nitrogen [6, 9]: 23.0 ± 1.2^g mg/dl
- Blood urea nitrogen [6, 10]: 22.3 ± 1.1^g mg/dl
- Blood urea nitrogen [6, 11]: 23.9 ± 0.9^g mg/dl
- Blood urea nitrogen [6, 12]: 24.4 ± 0.7^g mg/dl
- Change in serum ALT levels [7, 14]: did not exhibit any significant changes in serum ALT levels
- Kidney morphology [8]: did not produce any noticeable changes in the kidney morphology

SMILES: O=C1CSCN1c1cc(Cl)cc(Cl)c1 [4-DCTD, 3-(3,5-dichlorophenyl)-4-thiazolidinone]
- Six-hour urine protein content [1, 9]: 1.8 ± 0.3^c mg
- Six-hour urine protein content [1, 10]: 1.6 ± 0.2^c mg
- Six-hour urine protein content [1, 11]: 1.9 ± 0.4^c mg
- Six-hour urine protein content [1, 12]: 2.8 ± 0.3^c mg
- Kidney weight [2, 9]: 0.40 ± 0.01^d g/ 100% BW
- Kidney weight [2, 10]: 0.37 ± 0.01^d g/ 100% BW
- Kidney weight [2, 11]: 0.41 ± 0.01^d g/ 100% BW
- Kidney weight [2, 12]: 0.42 ± 0.01^d g/ 100% BW
- Liver morphology [3, 13]: no changes in hepatic morphology
- Liver weight [4, 9]: 3.74 ± 0.23^c g/100% BW
- Liver weight [4, 10]: 3.96 ± 0.18^c g/100% BW
- Liver weight [4, 11]: 3.46 ± 0.09^c g/100% BW
- Liver weight [4, 12]: 3.81 ± 0.15^c g/100% BW
- Diuresis / increase in urine volume ([5]; all doses, compared to controls, not dose-dependent): approximately three and a half-fold increase
- Twenty-four-hour urine volume [5, 9]: 12.3 ± 1.7*,^c ml
- Twenty-four-hour urine volume [5, 10]: 11.3 ± 2.2*,^c ml
- Twenty-four-hour urine volume [5, 11]: 9.1 ± 1.6*,^c ml
- Twenty-four-hour urine volume [5, 12]: 12.3 ± 1.0*,^c ml
- Blood urea nitrogen [6, 9]: 26.8 ± 1.5^d mg/dl
- Blood urea nitrogen [6, 10]: 25.6 ± 1.9^d mg/dl
- Blood urea nitrogen [6, 11]: 33.8 ± 2.4*,^e mg/dl
- Blood urea nitrogen [6, 12]: 42.5 ± 1.1*,^f mg/dl
- Change in serum ALT levels [7, 14]: did not exhibit any significant changes in serum ALT levels
- Kidney morphology [8]: Minor swelling in the proximal tubular cells and slight dilation of collecting tubules

SMILES: O=C1CSC(=O)N1c1ccc(Cl)cc1 [CPTD, 3-(4-chlorophenyl)-2,4-thiazolidinedione]
- Six-hour urine protein content [1, 9]: 2.0 ± 0.1^c mg
- Six-hour urine protein content [1, 10]: 1.9 ± 0.1^c mg
- Six-hour urine protein content [1, 11]: 2.0 ± 0.1^c mg
- Six-hour urine protein content [1, 12]: 1.9 ± 0.1^c mg
- Kidney weight [2, 9]: 0.39 ± 0.02^b g/ 100% BW
- Kidney weight [2, 10]: 0.41 ± 0.01^b g/ 100% BW
- Kidney weight [2, 11]: 0.46 ± 0.02*,^c g/ 100% BW
- Kidney weight [2, 12]: 0.51 ± 0.04*,^c g/ 100% BW
- Liver morphology ([3]; 1.0 mmol/kg i.p.): signs of liquefactive necrosis
- Liver morphology [3, 13]: necrotic lesions with acute inflammatory response
- Liver weight [4, 9]: 3.62 ± 0.16^c g/100% BW
- Liver weight [4, 10]: 3.84 ± 0.07^c g/100% BW
- Liver weight [4, 11]: 4.36 ± 0.06*,^d g/100% BW
- Liver weight [4, 12]: 3.98 ± 0.14*,^c g/100% BW
- Twenty-four-hour urine volume [5, 9]: 5.7 ± 1.5^b ml
- Twenty-four-hour urine volume [5, 10]: 12.4 ± 4.6*,^c ml
- Twenty-four-hour urine volume [5, 11]: 16.6 ± 0.8*,^c ml
- Twenty-four-hour urine volume [5, 12]: 15.3 ± 2.7*,^c ml
- Increase in BUN levels ([6]; all dosages, compared to corn oil controls): 1.8 fold
- Blood urea nitrogen [6, 9]: 37.9 ± 0.6*,^c mg/dl
- Blood urea nitrogen [6, 10]: 38.1 ± 1.7*,^c mg/dl
- Blood urea nitrogen [6, 11]: 40.4 ± 2.7*,^c mg/dl
- Blood urea nitrogen [6, 12]: 34.9 ± 1.8*,^c mg/dl
- serum alanine aminotransferase (ALT) activity ([7]; 1.0 mmol/kg i.p. in corn oil): 1622.5 ± 218.5 Sigma-Frankel units/ml
- Change in serum ALT levels [7, 14]: significantly elevated
- Kidney morphology [8]: minor swelling in some proximal tubular cells

SMILES: O=C1CSC(=O)N1c1cc(C(F)(F)F)cc(C(F)(F)F)c1 [DFMPT, 3-[3,5-bis(trifluoromethyl)phenyl]-2,4-thiazolidinedione]
- Six-hour urine protein content [1, 9]: 1.1 ± 0.3^e mg
- Six-hour urine protein content [1, 10]: 1.6 ± 0.2^e mg
- Six-hour urine protein content [1, 11]: 1.5 ± 0.2^e mg
- Six-hour urine protein content [1, 12]: 1.0 ± 0.2^e mg
- Kidney weight [2, 9]: 0.40 ± 0.01^g g/ 100% BW
- Kidney weight [2, 10]: 0.42 ± 0.03^g g/ 100% BW
- Kidney weight [2, 11]: 0.30 ± 0.09^g g/ 100% BW
- Kidney weight [2, 12]: 0.48 ± 0.01*,^h g/ 100% BW
- Liver morphology [3, 13]: did not show any noticeable changes in morphology
- Liver weight [4, 9]: 3.82 ± 0.12^f g/100% BW
- Liver weight [4, 10]: 3.59 ± 0.10^f g/100% BW
- Liver weight [4, 11]: 3.78 ± 0.07^f g/100% BW
- Liver weight [4, 12]: 4.05 ± 0.15*,^f g/100% BW
- Twenty-four-hour urine volume [5, 9]: 10.1 ± 1.3*,^f ml
- Twenty-four-hour urine volume [5, 10]: 14.1 ± 2.6*,^f,^g ml
- Twenty-four-hour urine volume [5, 11]: 20.0 ± 3.1*,^g,^h ml
- Twenty-four-hour urine volume [5, 12]: 23.5 ± 1.8*,^h ml
- Blood urea nitrogen [6, 9]: 19.6 ± 0.5^e mg/dl
- Blood urea nitrogen [6, 10]: 21.7 ± 0.4^e mg/dl
- Blood urea nitrogen [6, 11]: 22.5 ± 0.5^e mg/dl
- Blood urea nitrogen [6, 12]: 32.7 ± 1.4*,^f mg/dl
- Change in serum ALT levels [7, 14]: normal
- Kidney morphology [8]: minor swelling in some proximal tubular cells

SMILES: Cc1cc(C)cc(N2C(=O)CSC2=O)c1 [DMPT, 3-(3,5-dimethylphenyl)-2,4-thiazolidinedione]
- Six-hour urine protein content [1, 9]: 0.8 ± 0.3^a mg
- Six-hour urine protein content [1, 10]: 1.4 ± 0.1^a mg
- Six-hour urine protein content [1, 11]: 1.9 ± 0.2^a mg
- Six-hour urine protein content [1, 12]: 2.8 ± 0.4*,^b mg
- Kidney weight [2, 9]: 0.38 ± 0.01^a g/ 100% BW
- Kidney weight [2, 10]: 0.40 ± 0.02^a g/ 100% BW
- Kidney weight [2, 11]: 0.39 ± 0.00^a g/ 100% BW
- Kidney weight [2, 12]: 0.38 ± 0.01^a g/ 100% BW
- Liver morphology ([3]; 0.2 and 0.4 mmol/kg i.p.): necrotic lesions with infiltration of inflammatory cells, neutrophils and lymphocytes
- Liver morphology ([3]; 0.6 and 1.0 mmol/kg i.p.): necrotic lesions were widespread with many inflammatory cells seen around the lesions
- Liver weight [4, 9]: 3.47 ± 0.20^a g/100% BW
- Liver weight [4, 10]: 4.10 ± 0.20*,^b g/100% BW
- Liver weight [4, 11]: 4.20 ± 0.05*,^b g/100% BW
- Liver weight [4, 12]: 3.97 ± 0.04*,^b g/100% BW
- Twenty-four-hour urine volume [5, 9]: 5.8 ± 1.4*,^a ml
- Twenty-four-hour urine volume [5, 10]: 9.9 ± 2.2*,^a ml
- Twenty-four-hour urine volume [5, 11]: 8.9 ± 1.8*,^a ml
- Twenty-four-hour urine volume [5, 12]: 11.3 ± 2.5*,^a ml
- Blood urea nitrogen [6, 9]: 18.1 ± 1.3^a mg/dl
- Blood urea nitrogen [6, 10]: 22.2 ± 0.4^a mg/dl
- Blood urea nitrogen [6, 11]: 27.5 ± 1.4*,^b mg/dl
- Blood urea nitrogen [6, 12]: 32.8 ± 3.1*,^b mg/dl
- serum alanine aminotransferase (ALT) activity ([7]; 1.0 mmol/kg i.p. in corn oil): 2071.9 ± 217.8 Sigma-Frankel units/ml
- Change in serum ALT levels ([7]; all doses except the lowest (0.4, 0.6, 1.0 mmol/kg) i.p., vs corn oil): marked increases in serum ALT levels
- Kidney morphology [8]: normal

SMILES: CC1SC(=O)N(c2cc(Cl)cc(Cl)c2)C1=O (centres unmarked) [DPMT, 3-(3,5-dichlorophenyl)-5-methyl-2,4-thiazolidinedione]
- Six-hour urine protein content [1, 9]: 2.1 ± 0.7^a mg
- Six-hour urine protein content [1, 10]: 1.6 ± 0.1^a mg
- Six-hour urine protein content [1, 11]: 2.6 ± 0.8^a mg
- Six-hour urine protein content [1, 12]: 2.5 ± 0.3^a mg
- Kidney weight [2, 9]: 0.37 ± 0.01^a g/ 100% BW
- Kidney weight [2, 10]: 0.38 ± 0.01^a g/ 100% BW
- Kidney weight [2, 11]: 0.39 ± 0.01^a g/ 100% BW
- Kidney weight [2, 12]: 0.41 ± 0.01^a g/ 100% BW
- Liver morphology ([3]; 0.6 mmol/kg i.p.): some damage near the centrilobular vein
- Liver morphology ([3]; 1.0 mmol/kg i.p.): more damaged hepatocytes
- Liver morphology ([3]; 0.2 and 0.4 mmol/kg i.p.): did not show any noticeable changes in liver morphology
- Liver weight [4, 9]: 3.67 ± 0.31^a g/100% BW
- Liver weight [4, 10]: 3.81 ± 0.22^a g/100% BW
- Liver weight [4, 11]: 4.03 ± 0.27^a g/100% BW
- Liver weight [4, 12]: 4.10 ± 0.07^a g/100% BW
- Increase in urine volume ([5]; 0.6 and 1.0 mmol/kg): about three-fold increase
- Twenty-four-hour urine volume [5, 9]: 6.5 ± 2.1^a ml
- Twenty-four-hour urine volume [5, 10]: 8.1 ± 1.7^a ml
- Twenty-four-hour urine volume [5, 11]: 11.6 ± 1.0*,^a ml
- Twenty-four-hour urine volume [5, 12]: 10.8 ± 1.3*,^a ml
- Blood urea nitrogen [6, 9]: 19.6 ± 0.8^a mg/dl
- Blood urea nitrogen [6, 10]: 24.6 ± 1.3^a mg/dl
- Blood urea nitrogen [6, 11]: 19.8 ± 2.8^a mg/dl
- Blood urea nitrogen [6, 12]: 20.0 ± 2.2^a mg/dl
- serum alanine aminotransferase (ALT) activity ([7]; 0.6 mmol/kg i.p. in corn oil): 298.6 ± 176.1 Sigma-Frankel units/ml
- serum alanine aminotransferase (ALT) activity ([7]; 1.0 mmol/kg i.p. in corn oil): 327.3 ± 102.9 Sigma-Frankel units/ml
- Change in serum ALT levels ([7]; 0.6 and 1.0 mmol/kg i.p., vs two lower doses and corn oil): significant elevation in ALT concentrations
- Kidney morphology [8]: did not exhibit obvious changes in kidney morphology
